Consider 2 compounds from publication PMC10350920, “Development of a 2,4-Diaminothiazole Series for the Treatment of Human African Trypanosomiasis Highlights the Importance of Static–Cidal Screening of Analogues” (Journal of Medicinal Chemistry, 2023).

Bounds are passed on as bounds.

A word on the EC50: it is the midpoint of the concentration-response curve. One may read the Tmax as the time at which the peak concentration occurs. As a reminder, the fraction unbound is free concentration divided by total concentration. By solubility is commonly meant how much of the substance goes into solution per volume. A higher solubility goes with a readily soluble substance.

One series deals with T. b. brucei S427. In words: Stage 1 efficacy study in rats. In kind it is in vivo, male SD rats. The note with it: infected rats, single dose, 100 mg kg^–1 PO. The method, then:
Stage 1 efficacy experiments using T. b. brucei S427 were performed as described,[44] with minor modifications. In brief, male SD rats (38) or female HRN (16) and NMRI (16, 38) mice (3–5 per group) were injected intraperitoneally with 1 × 10^4 BSFs of T. brucei. These BSFs come from a stock of cryopreserved stabilates containing 10% glycerol. The stabilate was suspended in 20 mM Hanks’ balanced salt solution with glucose to obtain a trypanosome concentration of 5 × 10^4 cells mL^–1. Each mouse was injected with 0.2 mL. […] Dose concentrations were 1.25, 2.5, 5, 7.5, 10, 30, and 50 mg kg^–1 free base (16) or 100 mg kg^–1 free base (38). The doses were prepared fresh daily, using 5% DMSO/40% PEG400/55% Milli-Q (16) or 15% solutol/85% Milli-Q (38), and the dose volume was 10 mL kg^–1. One group of three mice was an untreated control group.

The next series relates to T. brucei RES I. In words: Drug sensitivity, compound 38-resistant clone RES I. In kind it is cell-based, T. b. brucei. How it is done: Drug sensitivity assays were carried out with BSF T. b. brucei “single marker” S427 or BSF T. b. brucei, Lister 427, MiTat 1.2, clone 221a 2T1 cells,[45] cells grown at 37 °C with 5% CO2 in an HMI-9T medium[46] as previously described.[47] 2T1 cells were initially maintained with 1 μg mL^–1 puromycin and 1 μg mL^–1 phleomycin prior to transfection or 2.5 μg mL^–1 hygromycin and 1 μg mL^–1 phleomycin after transfection. Induction of overexpression was achieved by the addition of 1 μg mL^–1 tetracycline to the culture medium.
Compound-resistant cell lines were generated by subculturing a clone of T. brucei in the continuous presence of 38. Starting at sublethal concentrations, drug concentrations in two independent cultures were increased in a stepwise manner, usually 2-fold. When parasites were able to survive and grow in concentrations of drugs equivalent to more than 10 times the established EC50 value, the resulting cell lines were cloned by limiting dilution in the presence of the compound. Two clones (RES I-II) were selected for further biological study. A standard alkaline lysis protocol was used to isolate genomic DNA from compound-resistant bloodstream T. brucei parasites (∼1 × 10^8). Whole genome sequencing was performed using a DNB-seq next-generation sequencing platform (BGI, Hong Kong). Sequencing reads (150 bp) were aligned to the T. brucei TREU927 genome (v39; tritrypDB) using Bowtie2[48] and Samtools[49] software. […] Samtools and BCFtools[52] (mpileup) were used to call SNP and indels compared with the wild-type starter clone, where the overall quality score (QUAL) was >100. Artemis[50] was used to analyze chromosome and gene copy number variation, as well as visualization of SNPs.

A further series in a line: Pharmacokinetics in rats. In kind it is in vivo, Sprague Dawley rats.
Series [1] is described as follows: Mammalian cell counter screen (MRC-5). In kind it is cell-based, human. The note with it: human, MRC-5 fibroblasts; mean values; number of replicates in parentheses. The method, then: Drug sensitivity assays with BSF T. b. brucei “single marker” S427 and human MRC-5 fibroblasts were conducted as previously described.[43]
A general note: The purpose of a counterscreen is to sort out artefacts and off-target activity.

The nature of series [2]: Equilibrium dialysis, free fraction in brain. In kind it is in vitro ADME, mouse. How it is done: In brief, a 96-well equilibrium dialysis apparatus was used to determine the free fraction in plasma and the brain (HT Dialysis LLC, Gales Ferry, CT). Isotonic buffer was prepared using 8.69 g of Na2HPO4, 1.9 g of KH2PO4, and 4.11 g of NaCl dissolved in 1 L of Milli-Q water, and the pH was adjusted to 7.4. Artificial CSF was prepared using 3.652 g of NaCl, 93.2 mg of KCl, 119.96 mg of MgCl2, 92.61 mg of CaCl2, and 268 mg of Na2HPO4 heptahydrate dissolved in 0.5 L of water, and the pH was adjusted to 7.4. Membranes [12–14 (plasma) or 6–9 (brain) kDA cutoff] were conditioned in deionized water for 60 min, followed by conditioning in 80:20 deionized water/ethanol for 20 min, and then rinsed in isotonic buffer (plasma) or […] (brain) before use. Female CD1 mouse plasma was defrosted and centrifuged for 10 min at 3000 rpm (Allegra X12-R, Beckman Coulter, USA). The control mouse brain was homogenized in two volumes of artificial CSF in a Covaris S2 acoustic homogenizer. […] All samples were analyzed by means of UPLC/MS/MS on a Quattro Premier XE or Micro TQs mass spectrometer (Waters Corporation, USA). The unbound fraction was determined as the ratio of the peak area in the buffer to that in the matrix.

Series [3] is described as follows: Kinetic aqueous solubility (laser nephelometry). In kind it is physicochemical. The note with it: Milli-Q water with 2.5% DMSO. The method, then: The kinetic aqueous solubility of the test compounds was measured using laser nephelometry. Compounds were subject to serial dilution from 10 to 0.5 mM in DMSO. An aliquot was then mixed with Milli-Q water to obtain an aqueous dilution plate with a final concentration range of 13–250 μM, with a final DMSO concentration of 2.5%. Triplicate aliquots were transferred to a flat-bottomed polystyrene plate which was immediately read on the NEPHELOstar (BMG Lab Technologies). The amount of laser scatter caused by insoluble particulates (relative nephelometry units, RNUs) was plotted against compound concentration using a segmental regression fit, with the point of inflection being quoted as the compound’s aqueous solubility (μM).

Series [4] can be described thus: Pharmacokinetics in NMRI mice. In kind it is in vivo, female NMRI mice.
Description: (§1) To determine compound exposure, compounds were dosed by gavage (16, 38) at 10 mg kg^–1 free base (16, 38), dose volume; and 5 mL kg^–1 (16, 38), dose vehicle (10% DMSO/40% PEG400/50% Milli-Q) to female NMRI mice, n = 3/dose level (16), or Sprague Dawley rats (38). Blood samples were taken from each mouse/rat at 5, 15, and 30 min, 1, 2, 4, 6, and 8 h postdose and mixed with two volumes of distilled water. After suitable sample preparation, the concentration of the test compound in blood was determined by UPLC–MS/MS using a Quattro Premier XE (Waters, USA). Pharmacokinetic parameters were derived from the mean blood concentration–time curve using PKsolutions software v 2.0 (Summit Research Services, USA).
The subject of a further series is stage 2 HAT. In words: Stage 2 model of CNS disease. In kind it is in vivo.
Where [5] appears, read: male, Sprague Dawley, whole blood, rat, PO, 10 mg kg^–1.
Where [6] appears, read: 100 mg kg^–1 IP, assuming linearity of exposure.

Description for Pharmacokinetics in rats: as §1

Turning to `CC(C)(O)CC(=O)c1sc(Nc2ccc(F)c(F)c2)nc1N` [Compound 38, 1-(4-Amino-2-((3,4-difluorophenyl)amino)thiazol-5-yl)-3-hydroxy-3-methylbutan-1-one], the “stage 1 efficacy, parasitemia” value with T. b. brucei S427 was “no reduction in parasitemia”. In addition, the half-maximal effective concentration (EC50) in the series on T. brucei RES I (Trypanosoma brucei, read-out: EC50, RES I) was found to be 2.2 ± 0.084 µM; in series [1], 46 µM. In addition, in the series with T. brucei RES I (relative to the parental wild-type, in brackets), the “fold resistance, RES I” value is 7. Further, the “free blood Cmax” value in the series “Pharmacokinetics in rats” (male SD rats, 10 mg kg^–1 PO) came out at 195 ng mL^–1. Further, the AUC in the series “Pharmacokinetics in rats” (setting [5]) is 7830 ng·h/mL; in series [4] (female, mouse, whole blood, NMRI mice, IP, 50 mg kg^–1, read-out: AUC (converted)), 31700 ng·h/mL. Besides, the Cmax in the series “Pharmacokinetics in rats” (setting [5]) stood at 1400 ng/mL; in series [4] (female, NMRI, mouse, whole blood, mice, IP, 50 mg kg^–1, read-out: total blood Cmax), 55 µM. The Tmax in “Pharmacokinetics in rats” (setting [5]) was 240 min; in series [4] (female, mouse, whole blood, NMRI mice, IP, 50 mg kg^–1, read-out: Tmax) it was 30 min. Also, in series [2] (mouse, brain homogenate, pH 7.4, read-out: brain free fraction (Fu, fraction unbound)), the fraction unbound at 5 h, 10 μg mL^–1 was found to be 0.0313. This compound also showed a solubility in series [3] above 100 µg/mL. In addition, the “free Cmax in blood, extrapolated” value in series [4] (setting [6]) is 16 µM. Further, the “free Cmax, extrapolated” value in series [4] (setting [6]) is listed as 5200 ng mL^–1. For the same compound, the “Cmax (total blood)” value in series [4] (NMRI mice, IP, 50 mg kg^–1) is listed as 18,000 ng mL^–1. Moreover, the “free Cmax in the brain, extrapolated” value in series [4] (mice, 100 mg kg^–1 IP) was 4.6 µM.
For “(4-Amino-2-(cyclohexylamino)thiazol-5-yl)(2,6-difluorophenyl)methanone [Compound 16]”, the “efficacy in stage 2 disease model” value in the series on stage 2 HAT is reported as “not efficacious”. In addition, the “brain free fraction (Fu, fraction unbound)” value in series [2] (brain) was determined as 0.0063. Also, in series [4] (NMRI mice, IP, 10 mg kg^–1), the AUC is reported as 66,000 ng mL h^–1 and the Tmax stood at 15 min. Also, in series [4] (NMRI mice, PO, 10 mg kg^–1), the AUC was found to be 5700 ng mL h^–1, the Cmax came to 33 ng mL^–1 and the Tmax is 30 min.
